Results from ChEMBL document CHEMBL1201862, “PubChem BioAssay data set” (2004).
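96-well plates; 48 h exposure; 5 concentrations. Endpoints by linear interpolation between flanking doses. Not reached: highest tested concentration assigned. The concentration for 50% growth inhibition is given as GI50.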 Activity calls are given as the source filed them. Rule as the data show it: active = GI50 up to about 1.1 µM and inactive = higher.

Tests used:
Assay in all cases: growth of human tumour cells (NCI), 48 h
[1] = system: NCI-H23
[2] = system: ACHN
[3] = system: Hs-578T
[4] = system: SK-MEL-28
[5] = system: MCF7
[6] = system: IGROV-1
[7] = system: SN12C
[8] = system: 786-0
[9] = system: UO-31
[10] = system: PC-3
[11] = system: NCI/ADR-RES
[12] = system: NCI-H522
[13] = system: RPMI-8226
[14] = system: OVCAR-3
[15] = system: RXF 393
[16] = system: A498
[17] = system: CAKI-1
[18] = system: MDA-N
[19] = system: SNB-19
[20] = system: KM12
[21] = system: LOX IMVI
[22] = system: SF-295
[23] = system: HT-29
[24] = system: M14
[25] = system: MDA-MB-231
[26] = system: COLO 205
[27] = system: Malme-3M
[28] = system: HOP-92
[29] = system: MOLT-4
[30] = system: UACC-257
[31] = system: EKVX
[32] = system: CCRF-CEM
[33] = system: A549
[34] = system: SNB-75
[35] = system: T47D
[36] = system: SK-MEL-2
[37] = system: HCC 2998
[38] = system: SW-620
[39] = system: OVCAR-4
[40] = system: BT-549
[41] = system: OVCAR-5
[42] = system: U-251
[43] = system: HOP-62
[44] = system: SF-268
[45] = system: HCT-15
[46] = system: NCI-H460
[47] = system: HCT-116
[48] = system: SF-539
[49] = system: DU-145
[50] = system: MDA-MB-435
[51] = system: OVCAR-8
[52] = system: K562
[53] = system: UACC-62
[54] = system: TK-10
[55] = system: NCI-H226
[56] = system: SK-OV-3
[57] = system: HL-60
[58] = system: SK-MEL-5

Compound: C/C(=N\NC(=S)N(C)C)c1ccccn1
- GI50 [1]: < 10 nM (active)
- GI50 [2]: < 12.2 nM (active)
- GI50 [3]: 3700 nM (inactive)
- GI50 [4]: 269 nM (active)
- GI50 [5]: < 10 nM (active)
- GI50 [6]: < 10 nM (active)
- GI50 [7]: 57 nM (active)
- GI50 [8]: < 11.8 nM (active)
- GI50 [9]: 122 nM (active)
- GI50 [10]: < 10 nM (active)
- GI50 [11]: < 10 nM (active)
- GI50 [12]: 247 nM (active)
- GI50 [13]: < 37.9 nM (active)
- GI50 [14]: < 10 nM (active)
- GI50 [15]: 410 nM (active)
- GI50 [16]: 519 nM (active)
- GI50 [17]: 186 nM (active)
- GI50 [18]: 305 nM (active)
- GI50 [19]: 1470 nM (inactive)
- GI50 [20]: 30.7 nM (active)
- GI50 [21]: < 10 nM (active)
- GI50 [22]: < 10 nM (active)
- GI50 [23]: < 10 nM (active)
- GI50 [24]: < 10 nM (active)
- GI50 [25]: < 10 nM (active)
- GI50 [26]: < 10 nM (active)
- GI50 [27]: 219 nM (active)
- GI50 [28]: 498 nM (active)
- GI50 [29]: < 10 nM (active)
- GI50 [30]: < 10 nM (active)
- GI50 [31]: 28.4 nM (active)
- GI50 [32]: < 10 nM (active)
- GI50 [33]: 41.3 nM (active)
- GI50 [34]: 486 nM (active)
- GI50 [35]: < 10 nM (active)
- GI50 [36]: 139 nM (active)
- GI50 [37]: 161 nM (active)
- GI50 [38]: 10.9 nM (active)
- GI50 [39]: < 10 nM (active)
- GI50 [40]: 11.1 nM (active)
- GI50 [41]: 37.3 nM (active)
- GI50 [42]: < 10 nM (active)
- GI50 [43]: 33 nM (active)
- GI50 [44]: < 31.7 nM (active)
- GI50 [45]: < 10 nM
- GI50 [46]: < 15.6 nM (active)
- GI50 [47]: < 10 nM (active)
- GI50 [48]: 231 nM (active)
- GI50 [49]: 161 nM (active)
- GI50 [50]: 221 nM (active)
- GI50 [51]: < 10 nM (active)
- GI50 [52]: < 10 nM (active)
- GI50 [53]: < 12.4 nM (active)
- GI50 [54]: 564 nM (active)
- GI50 [55]: 148 nM (active)
- GI50 [56]: < 26.4 nM (active)
- GI50 [57]: < 10 nM (active)
- GI50 [58]: 178 nM (active)

Compound: CC(C)(Sc1cc(C(C)(C)C)c(O)c(C(C)(C)C)c1)Sc1cc(C(C)(C)C)c(O)c(C(C)(C)C)c1 [PROBUCOL]
- GI50 [1]: > 100000 nM (inactive)
- GI50 [2]: > 100000 nM (inactive)
- GI50 [3]: > 100000 nM (inactive)
- GI50 [4]: > 100000 nM (inactive)
- GI50 [5]: > 100000 nM (inactive)
- GI50 [6]: > 100000 nM (inactive)
- GI50 [7]: > 100000 nM (inactive)
- GI50 [8]: > 100000 nM (inactive)
- GI50 [9]: > 100000 nM (inactive)
- GI50 [10]: > 100000 nM (inactive)
- GI50 [11]: > 100000 nM (inactive)
- GI50 [12]: > 100000 nM (inactive)
- GI50 [13]: > 100000 nM (inactive)
- GI50 [15]: 79600 nM (inactive)
- GI50 [16]: > 100000 nM (inactive)
- GI50 [17]: > 100000 nM (inactive)
- GI50 [18]: > 100000 nM (inactive)
- GI50 [19]: > 100000 nM (inactive)
- GI50 [20]: > 100000 nM (inactive)
- GI50 [21]: > 100000 nM (inactive)
- GI50 [22]: > 100000 nM (inactive)
- GI50 [23]: > 100000 nM (inactive)
- GI50 [24]: > 100000 nM (inactive)
- GI50 [25]: > 100000 nM (inactive)
- GI50 [26]: > 100000 nM (inactive)
- GI50 [27]: > 100000 nM (inactive)
- GI50 [30]: > 100000 nM (inactive)
- GI50 [31]: 4570 nM (inactive)
- GI50 [32]: > 100000 nM (inactive)
- GI50 [33]: > 100000 nM (inactive)
- GI50 [34]: > 100000 nM (inactive)
- GI50 [35]: > 100000 nM (inactive)
- GI50 [36]: > 100000 nM (inactive)
- GI50 [38]: > 100000 nM (inactive)
- GI50 [39]: > 100000 nM (inactive)
- GI50 [40]: > 100000 nM (inactive)
- GI50 [41]: > 100000 nM (inactive)
- GI50 [42]: > 100000 nM (inactive)
- GI50 [43]: > 100000 nM (inactive)
- GI50 [44]: 52800 nM (inactive)
- GI50 [45]: > 100000 nM
- GI50 [46]: > 100000 nM (inactive)
- GI50 [47]: > 100000 nM (inactive)
- GI50 [48]: > 100000 nM (inactive)
- GI50 [49]: > 100000 nM (inactive)
- GI50 [50]: > 100000 nM (inactive)
- GI50 [51]: > 100000 nM (inactive)
- GI50 [52]: 1810 nM (inactive)
- GI50 [53]: > 100000 nM (inactive)
- GI50 [54]: > 100000 nM (inactive)
- GI50 [56]: > 100000 nM (inactive)
- GI50 [57]: 1490 nM (inactive)
- GI50 [58]: > 100000 nM (inactive)
